SMILES strings stand for the structures. Where two headings read alike, the source gives them in different places.

Consider four compounds from article PMC12249711, “Comprehensive Evaluation of 1H-Isoindole-1,3(2H)-Dione Derivatives: Pharmacokinetic Studies and Analgesic Potential in Various Pain Models” (International Journal of Molecular Sciences, 2025).

Series [1] is described as follows: Pharmacokinetic study after single i.p. administration, serum and brain concentrations by LC-MS/MS, non-compartmental analysis. Conditions: mice; for Kp: brain/serum, read-out: Kbrain/serum (brain/serum partitioning coefficient); for Kp / MRT / Tmax / half-life / k el / CL/F / Vd/F / AUC0-inf / AUC0–8h: 5 mg/kg i.p.; for half-life: read-out: t1/2(λz) half-life in the elimination phase (converted); for k el: read-out: λz (terminal elimination rate constant) (converted); for Vd/F: read-out: Vz/F. The series is classed as in vivo, Albino Swiss mice. The procedure:
The compounds F1, F2, F3, and F4 were suspended in a 1% Tween 80 solution in sterile water for injection and given to mice i.p. at a dose of 5 mg/kg (n = 3 per time point; all mice in procedure = 96) as a single injection at a volume of 10 mL/kg. At specific time points (5; 15; 30; 60; 120; 240; 360; and 480 min after compound administration), mice were sacrificed by decapitation under isoflurane (5%) anesthesia to harvest blood and brain for assays. After allowing the blood to coagulate for 20 min at room temperature, blood samples were centrifuged for 10 min at 8000 rpm (Eppendorf miniSpin centrifuge) to obtain serum. Moreover, brains were removed (at the same time point) from skulls and washed with 0.9% NaCl. The obtained serum and brains were stored at −80 °C until analysis.
Concentrations of compounds F1 to F4 in mice brains and serum were measured by the liquid chromatography tandem mass spectrometry (LC-MS/MS) method using a Sciex QTRAP 4500 triple quadrupole mass spectrometer coupled to an Excion LC AC HPLC system (both from Danaher Corporation, Washington, DC, USA). The brains were homogenized in distilled water at the ratio of 1:4 (w/v) with a tissue homogenizer ULTRA-TURRAX T10 basic (IKA, Königswinter, Germany). The stock solutions of analyzed compounds were prepared in methanol at the concentration of 1 mg/mL. For the preparation of calibration curves, working standard solutions were prepared in methanol by the serial dilution of the stock solution at the following concentrations: 0.005; 0.01; 0.1; 0.25; 0.5; 1; 2.5; 5; and 10 µg/mL. To prepare samples for the calibration curve, 45 μL of matrix (blank plasma or brain homogenate) was spiked with 5 μL of standard working solution at an appropriate concentration level and vortexed for 10 s. Brain homogenates or serum samples (50 µL) as well as calibration samples were deproteinized with 150 μL of 0.1% formic acid in acetonitrile with an addition of internal standard (valsartan), shaken for 10 min (IKA Vibrax VXR, Königswinter, Germany), and centrifuged for 5 min at a speed of 8000× g (Eppendorf miniSpin centrifuge, Hamburg, Germany). Then, brain or serum supernatants were transferred into the autosampler vials. The autosampler temperature was maintained at 15 °C and a sample volume of 1 μL was injected into the LC-MS/MS system.
Chromatographic separation was carried out on the Hypersil GoldTM C18 analytical column (2.1 × 50 mm, 3 µm, Thermo Scientific, Waltham, MA, USA) with the oven temperature set at 30 °C. The mobile phase containing 0.1% formic acid in acetonitrile and 0.1% formic acid in water was delivered at a flow rate of […] in the gradient mode. Electrospray ionization (ESI) in the positive ion mode was used for ion production. The tandem mass spectrometer was operated at unit resolution in the selected reaction monitoring mode (SRM), monitoring the transitions of the protonated molecular ions m/z 366 to 201 (CE = 40 eV) and m/z 366 to 160 (CE = 40 eV) for compound F1, m/z 396 to 190 (CE = 39 eV) and m/z 396 to 160 (CE = 49 eV) for compound F2, m/z 434 to 145 (CE = 95 eV) and m/z 434 to 160 (CE = 47 eV) for compound F3, and m/z 456 to 167 (CE = 27 eV) and m/z 456 to 152 (CE = 85 eV) for compound F4. The first pair was used as a quantifier and the second for the identity verification—qualifier. One pair (m/z 436 to 235; CE = 42 eV) was monitored for valsartan used as an internal standard. The mass spectrometric conditions were optimized by continuous infusion of the standard solutions at the rate of 7 μL/min using a Harvard infusion pump (Harvard Apparatus, Holliston, MA, USA). The ion source temperature was maintained at 450 °C and the ion spray voltage was set at 4500 V. The curtain gas (CUR) was set at 40 and the collision gas (CAD) at Medium. The calibration curves were constructed by plotting the ratio of the peak area of the studied compound to internal standard (IS) versus drug concentration and generated by weighted (1/x·x) linear regression analysis. […]

Series [2] deals with mice. Kind of series: Oxaliplatin-induced neuropathic pain, von Frey test (tactile allodynia). Conditions: 10 mg/kg i.p. The format is in vivo, Albino Swiss mice. How it is done:
Furthermore, to assess the response to mechanical stimuli (i.e., tactile/mechanical) allodynia), the von Frey test was carried out with application of the electronic von Frey unit (Panlab, Cornellà de Llobregat, Spain) equipped with a fiber, the distal end of which was applied to the right hind paw of the mouse. The device automatically recorded the pressure force (in grams) applied until the paw withdrawal response occurred. In the absence of pain, an increase in the pressure value was observed. The force at which the animal withdrew its paw was considered the pain threshold for the mechanical stimulus. Measurements were taken before streptozotocin administration (in normoglycemic mice) and again 21 days later, both before and after compound administration, in diabetic mice (glucose level > 300 mg/dL) that had developed mechanical allodynia. On the day of the experiment, each mouse was placed in an observation chamber with a wire mesh bottom and was allowed to habituate for 1 h. After the habituation period, in order to obtain baseline values, each mouse was tested 3 times alternately in each hind paw, allowing at least 30 s between each measurement. Then, the mice were pretreated intraperitoneally with compound or vehicle, and 30 min later the animals were tested again and three measurements were taken, the mean of which was calculated to obtain the mean values after drug administration for each mouse. The anti-allodynic effect was defined as an increase in the pressure force value required to elicit a pain response, compared to the control group.
To assess the response to mechanical stimuli (i.e., tactile/mechanical allodynia), the von Frey test was performed using an electronic von Frey device (Bioseb, Vitrolles, France), as described in Section 4.4.5. In this assay, measurements were taken before and 3 h after oxaliplatin administration, as well as 7 days later. […] A total of 30 min after administration, the assessment was repeated using the same procedure.

The mark [3] stands for this setting: Albino Swiss, mouse, ip, serum, 5 min after 5 mg/kg i.p., read-out: Cmax (maximal concentration).
Where [4] appears, read: brain, 5 mg/kg i.p. single dose.
The mark [5] stands for this setting: serum, 5 mg/kg i.p. single dose.
Setting [6] is: early phase, 3 h after oxaliplatin.
[7] abbreviates: late phase, 7 days after oxaliplatin.

As to `O=C1c2ccccc2C(=O)N1CC(O)CN1CCN(c2ccccc2)CC1` (stereo not shown) [Compound F1], the Kp in series [1] (Albino Swiss, mouse, ip) was determined as 1.77. In series [1] (Albino Swiss, mouse, ip, brain), the MRT came to 81.6 min, the Tmax stood at 4.98 min, the half-life was 54.6 min and the k el is 0.000211 s⁻¹. In addition, the Cmax in series [1] (setting [3]) stood at 596 ng/mL. For the same compound, in series [1] (Albino Swiss, mouse, ip, serum), the CL/F was 395 mL/min/kg, the MRT was found to be 79.2 min, the Tmax stood at 4.98 min and the Vd/F worked out at 32.6 L/kg. Also, in series [1] (Albino Swiss, mouse, ip, serum), the half-life is 57 min and the k el was 0.000203 s⁻¹. In series [1] (brain), the AUC0-inf is reported as 374.60 µg∙h/L(kg) and the “AUC0–8h” value is on record as 368.04 µg∙h/L(kg). In series [1] (setting [4]), the Cmax is 970 µg/L(kg). In addition, in series [1] (serum), the AUC0-inf is on record as 211.22 µg∙h/L(kg) and the “AUC0–8h” value is listed as 205.95 µg∙h/L(kg). The Cmax in series [1] (setting [5]) is 595.75 µg/L(kg). Further, in series [2] (setting [6]), the “Analgesic activity (von Frey)” value came out at 60.7% and the “Pain threshold after compound administration (von Frey)” value (“Pain threshold” below) was 3.39 ± 0.46 g. In series [2] (setting [7]), the “Analgesic activity (von Frey)” value amounted to 35% and the “Pain threshold” value was found to be 3.9 ± 0.34 g.

As to `COc1ccccc1N1CCN(CC(O)CN2C(=O)c3ccccc3C2=O)CC1` (stereo not shown) [Compound F2], in series [1] (Albino Swiss, mouse, ip), the Kp is 0.79. For the same compound, in series [1] (Albino Swiss, mouse, ip, brain), the MRT stood at 84.6 min, the Tmax was 4.98 min, the half-life is 54 min and the k el was 0.000214 s⁻¹. Further, the Cmax in series [1] (setting [3]) is 700 ng/mL. For the same compound, in series [1] (Albino Swiss, mouse, ip, serum), the CL/F was 279 mL/min/kg, the MRT came out at 68.4 min, the Tmax was 4.98 min and the Vd/F was 18.2 L/kg. In addition, in series [1] (Albino Swiss, mouse, ip, serum), the half-life was 45 min and the k el is 0.000256 s⁻¹. Besides, in series [1] (brain), the AUC0-inf is 237.16 µg∙h/L(kg) and the “AUC0–8h” value was 230.83 µg∙h/L(kg). For the same compound, the Cmax in series [1] (setting [4]) was 465.38 µg/L(kg). In series [1] (serum), the AUC0-inf is on record as 298.26 µg∙h/L(kg) and the “AUC0–8h” value is on record as 292.78 µg∙h/L(kg). The Cmax in series [1] (setting [5]) was 699.75 µg/L(kg). In series [2] (setting [6]), the “Analgesic activity (von Frey)” value stood at 81% and the “Pain threshold” value is reported as 3.91 ± 0.29 g. In addition, in series [2] (setting [7]), the “Analgesic activity (von Frey)” value turned out to be 45.45% and the “Pain threshold” value is reported as 4.0 ± 0.34 g.

Take `O=C1c2ccccc2C(=O)N1CC(O)CN1CCN(c2cccc(C(F)(F)F)c2)CC1` (stereo not shown) [Compound F3]: in series [1] (Albino Swiss, mouse, ip), the Kp worked out at 2.05. Also, in series [1] (Albino Swiss, mouse, ip, brain), the MRT turned out to be 190 min, the Tmax was determined as 15 min, the half-life was 78.6 min and the k el is 0.000147 s⁻¹. The Cmax in series [1] (setting [3]) worked out at 210 ng/mL. Moreover, in series [1] (Albino Swiss, mouse, ip, serum), the CL/F was 297 mL/min/kg, the MRT turned out to be 168 min, the time to peak (Tmax) was found to be 4.98 min and the Vd/F worked out at 32.4 L/kg. In addition, in series [1] (Albino Swiss, mouse, ip, serum), the half-life is 75.6 min and the k el was 0.000153 s⁻¹. Further, in series [1] (brain), the AUC0-inf is listed as 573.90 µg∙h/L(kg) and the “AUC0–8h” value is reported as 520.05 µg∙h/L(kg). Besides, the Cmax in series [1] (setting [4]) is on record as 202.25 µg/L(kg). Moreover, in series [1] (serum), the AUC0-inf was 280.26 µg∙h/L(kg) and the “AUC0–8h” value was 258.81 µg∙h/L(kg). Further, the Cmax in series [1] (setting [5]) is 210.25 µg/L(kg). In series [2] (setting [6]), the “Analgesic activity (von Frey)” value is given as 82.9% and the “Pain threshold” value is on record as 3.53 ± 0.08 g. Moreover, in series [2] (setting [7]), the “Analgesic activity (von Frey)” value was determined as 37.59% and the “Pain threshold” value was 3.99 g.

On to `O=C1c2ccccc2C(=O)N1CC(O)CN1CCN(C(c2ccccc2)c2ccccc2)CC1` (stereo not shown) [Compound F4], for which the Kp in series [1] (Albino Swiss, mouse, ip) came to 1.62. Besides, in series [1] (Albino Swiss, mouse, ip, brain), the MRT turned out to be 97.8 min, the Tmax was 15 min, the half-life was 46.8 min and the k el is 0.000247 s⁻¹. In addition, the Cmax in series [1] (setting [3]) came to 131 ng/mL. In series [1] (Albino Swiss, mouse, ip, serum), the CL/F is 800 mL/min/kg, the MRT stood at 88.2 min, the Tmax stood at 4.98 min and the Vd/F amounted to 55.8 L/kg. Also, in series [1] (Albino Swiss, mouse, ip, serum), the half-life was 48 min and the k el was 0.000239 s⁻¹. In series [1] (brain), the AUC0-inf is on record as 168.99 µg∙h/L(kg) and the “AUC0–8h” value is recorded as 164.50 µg∙h/L(kg). Moreover, the Cmax in series [1] (setting [4]) is 163.5 µg/L(kg). In series [1] (serum), the AUC0-inf is 104.12 µg∙h/L(kg) and the “AUC0–8h” value is recorded as 101.99 µg∙h/L(kg). The Cmax in series [1] (setting [5]) is given as 130.58 µg/L(kg). In series [2] (setting [6]), the “Analgesic activity (von Frey)” value amounted to 76.2% and the “Pain threshold” value was 3.56 ± 0.32 g. In series [2] (setting [7]), the “Analgesic activity (von Frey)” value is listed as 24.39% and the “Pain threshold” value is listed as 3.57 ± 0.33 g.
